Consider two compounds from ChEMBL document CHEMBL5729562, “Proteasome activity enhancing compounds” (2023).

A value given as a limit tells only on which side of the number the result lay.

In the assay the target is Ubiquitin carboxyl-terminal hydrolase 14 (Homo sapiens, UniProt P54578). The experiment in a line: Usp14 Inhibition Assay: Usp14 Inhibition Assay was described in B. H. Lee et al. Nature 2010, 467 (9), 179.
Ubiquitin carboxyl-terminal hydrolase 14, sequence (P54578 whole entry): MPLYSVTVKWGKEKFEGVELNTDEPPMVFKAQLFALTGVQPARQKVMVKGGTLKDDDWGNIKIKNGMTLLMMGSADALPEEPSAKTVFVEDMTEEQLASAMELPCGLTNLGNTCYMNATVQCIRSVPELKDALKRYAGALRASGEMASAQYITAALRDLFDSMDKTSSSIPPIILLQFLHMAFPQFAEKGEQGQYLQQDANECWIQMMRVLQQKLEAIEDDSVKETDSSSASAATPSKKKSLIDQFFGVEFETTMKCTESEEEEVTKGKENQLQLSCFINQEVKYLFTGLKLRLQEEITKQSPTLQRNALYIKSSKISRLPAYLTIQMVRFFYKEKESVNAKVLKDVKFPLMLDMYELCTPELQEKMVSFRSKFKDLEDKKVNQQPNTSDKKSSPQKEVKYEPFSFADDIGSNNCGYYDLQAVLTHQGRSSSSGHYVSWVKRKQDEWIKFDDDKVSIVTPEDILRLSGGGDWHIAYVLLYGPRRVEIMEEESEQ

As to `Cc1c(C(=O)CN2C3CC4CC2CC(C3)O4)cc(CCCCC#N)n1-c1ccc(C#N)cc1`, the IC50 was less than 50 nM.

Compound `Cc1c(C(=O)CN2C3CCC2CC3)cc(C#CCCC#N)n1-c1ccc(C#N)cc1` had an IC50 of less than 50 nM.
